Where two headings read alike, the source gives them in different places.
Tested on: Ctenocephalides felis
Method: b) Ctenocephalides felis Adulticide Assay: C. felis Single Dose Screen
Mortality of fleas was the primary endpoint in the assay. Fleas were considered dead if they didn't move or were on their sides and unable to walk or right themselves. […] The concentration chosen (1.26 μg/cm^2) was higher than that known to kill 90% of cat fleas (LC90) using the reference compound, permethrin.
The test species was the cat flea (Ctenocephalides felis). The strain used was obtained from external suppliers as pupae and held in the laboratory under testing conditions until the adults had emerged. Fifteen (15) fleas were used in a minimum of four replicates against a single concentration level (approximately 60 fleas). The insects were selected to be in the adult life stage, aged between 3 and 7 days post emergence.
The compounds to be tested were supplied as solids and were prepared in acetone as described below prior to testing. Samples were stored in a refrigerator (5±1° C.) unless otherwise specified.
During the mortality testing, the temperature was maintained at 25±1° C. Humidity was maintained at 75±5%. The base (area=159 mm^2) of a 100 mL glass Erlenmeyer (conical) flask provided the treatment surface. Flasks were pretreated with Coatasil™ glass treatment to maximise bio-availability of test compounds by preventing them from binding to glass the surface. The base of the 100 mL Erlenmeyer flask was treated with 0.5 mL of test sample in acetone and gently swirled. This volume was sufficient to cover the base of the flask. Flasks were left to dry for 24 hours before flea exposure.
Adult cat fleas were placed into a sorting chamber, which allowed fleas to jump into the Erlenmeyer flasks. Fifteen (15) adult cat fleas were collected in each flask. The top of the flasks were then covered in Parafilm™ and small holes were made to allow gas exchange. A 0.5 mL volume of acetone as a solvent control was applied to the base of an Erlenmeyer flask and the testing proceeded in the same manner described above. Cat fleas in the treatment containers were held under testing conditions for 8, 24 and/or 48 hours. Mortality was recorded at 8, 24, 8 and 24, or 24 and 48 hours Pooled 8, 24, 8 and 24, and 24 and 48 hour mortality data were converted to percentages and are summarized by Table 21, below.

SMILES	C. felis Mortality (%) 8 h (8 h, data from laboratory 1) [%]	C. felis Mortality (%) 24 h (24 h, data from laboratory 1) [%]	C. felis Mortality (%) 8 h [%]	C. felis Mortality (%) 24 h [%]
CC(=NNc1ccc(Cl)cc1)c1ccccc1NS(=O)(=O)C(F)(F)F [Compound 122]	23	26	–	–
CN(C)N=C(c1ccccc1)c1cc(Cl)ccc1NS(=O)(=O)C(F)(F)F [Compound 123, N-[2-[1-dimethylhydrazono-1-phenyl]methyl-4-chlorophenyl]-trifluoromethanesulfonamide]	–	–	9	45
CCC(=NN1CCCC1)c1cc(Cl)ccc1NS(=O)(=O)C(F)(F)F [Compound 128]	12	36	–	–
C#CCN(c1ccc(Cl)cc1C(C)=NN1CCCCC1)S(=O)(=O)C(F)(F)F [Compound 133, N-[2-[1-(1-piperidyl)imino]ethyl-4-chlorophenyl]-N-propargyltrifluoromethanesulfonamide]	–	–	5	66
CC(=NN1CCCCC1)c1cc(Cl)ccc1N(C)S(=O)(=O)C(F)(F)F [Compound 134]	7	14	–	–
CCN(c1ccc(Cl)cc1C(C)=NN1CCCCC1)S(=O)(=O)C(F)(F)F [Compound 135, N-[2-[1-(1-piperidyl)imino]ethyl-4-chlorophenyl]-N-ethyl-trifluoromethanesulfonamide]	–	–	8	41
CC(C)=CCN(c1ccc(Cl)cc1C(C)=NN(C)c1ccccc1)S(=O)(=O)C(F)(F)F [Compound 136]	7	13	–	–
C#CCN(c1ccc(Cl)cc1C(C)=NN(C)c1ccccc1)S(=O)(=O)C(F)(F)F [Compound 137]	6	19	–	–
CC(=NN(C)C(=O)c1ccccc1)c1cc(Cl)ccc1NS(=O)(=O)C(F)(F)F [Compound 138]	20	66	–	–
CC(=NN(C)c1cc(Cl)ccc1Cl)c1cc(Cl)ccc1NS(=O)(=O)C(F)(F)F [Compound 141]	13	75	–	–
CCN(N=C(C)c1cc(Cl)ccc1NS(=O)(=O)C(F)(F)F)c1cc(Cl)ccc1Cl [Compound 142]	12	46	–	–
CCCN(N=C(C)c1cc(Cl)ccc1NS(=O)(=O)C(F)(F)F)c1cc(Cl)ccc1Cl [Compound 143]	13	53	–	–
CC(=NN(c1cc(Cl)ccc1Cl)C(C)C)c1cc(Cl)ccc1NS(=O)(=O)C(F)(F)F [Compound 144]	7	42	–	–
CCOCN(c1ccc(Cl)cc1C(C)=NN1CCCCC1)S(=O)(=O)C(F)(F)F [Compound 145]	8	35	–	–
COCN(c1ccc(Cl)cc1C(C)=NN1CCCCC1)S(=O)(=O)C(F)(F)F [Compound 146]	12	24	–	–
CC(=NNc1ccc(C)cc1)c1cc(Cl)ccc1NS(=O)(=O)C(F)(F)F [Compound 155]	7	28	–	–
CCOC(=O)N(CCC(C)C)N=C(C)c1cc(Cl)ccc1NS(=O)(=O)C(F)(F)F [Compound 158]	–	–	5	28
CC(=NN1CCCCC1)c1cccc(NS(=O)(=O)C(F)(F)F)c1 [Compound 161]	7	16	–	–
CC(=NN(C)c1ccccc1)c1cc(NS(=O)(=O)C(F)(F)F)ccc1Cl [Compound 162]	8	58	–	–
CC(=NN(C)c1ccccc1)c1cccc(NS(=O)(=O)C(F)(F)F)c1 [Compound 163, N-[3-[1-(N′-methyl-N′-phenyl)hydrazono]ethylphenyl]-trifluoromethanesulfonamide]	–	–	8	18
CC(=NN(C)c1ccccc1)c1ccc(NS(=O)(=O)C(F)(F)F)cc1 [Compound 164]	8	72	–	–
CC(=NNc1ccc(Cl)cc1)c1ccc(NS(=O)(=O)C(F)(F)F)cc1 [Compound 165]	6	7	–	–
CC(=NN1CCCCC1)c1ccc(NS(=O)(=O)C(F)(F)F)cc1 [Compound 167]	2	5	–	–
C=CCN(N=C(C)c1cc(Cl)ccc1N(CC=C)S(=O)(=O)C(F)(F)F)c1ccc(Cl)cc1 [Compound 170]	2	24	–	–

SMILES	C. felis Mortality (%) 8 h (8 h, data from laboratory 1) [%]	C. felis Mortality (%) 24 h (24 h, data from laboratory 1) [%]	C. felis Mortality (%) 8 h [%]	C. felis Mortality (%) 24 h [%]
C=CCN(N=C(C)c1cc(Cl)ccc1NS(=O)(=O)C(F)(F)F)c1ccc(Cl)cc1 [Compound 171]	7	54	–	–
CC(=NN(C)c1ccccc1)c1cc2c(cc1NS(=O)(=O)C(F)(F)F)OCO2 [Compound 172]	5	31	–	–
C=CCN(N=C(C)c1cc(Cl)ccc1NS(=O)(=O)C(F)(F)F)c1ccccc1 [Compound 173]	17	59	–	–
CC(=NNS(=O)(=O)c1ccc(C)cc1)c1cc(Cl)ccc1NS(=O)(=O)C(F)(F)F [Compound 174]	5	27	–	–
C#CCN(N=C(C)c1cc(Cl)ccc1NS(=O)(=O)C(F)(F)F)c1ccccc1 [Compound 175]	5	38	–	–
CC(=NN1CCCCC1)c1ccccc1NS(=O)(=O)C(F)(F)F [Compound 176]	7	31	–	–
CC(=NN1CCCCC1)c1ccc(C(F)(F)F)cc1NS(=O)(=O)C(F)(F)F [Compound 177]	3	22	–	–
CC(=NNc1ccc(F)cc1)c1ccccc1NS(=O)(=O)C(F)(F)F [Compound 178]	4	29	–	–
CC(=NNc1ccc(Cl)cc1)c1ccc(C(F)(F)F)cc1NS(=O)(=O)C(F)(F)F [Compound 179]	3	25	–	–
CC(=NNc1ccc(F)cc1)c1ccc(C(F)(F)F)cc1NS(=O)(=O)C(F)(F)F [Compound 180]	0	16	–	–
CC(=NN1CCCCC1)c1cc2c(cc1NS(=O)(=O)C(F)(F)F)OCO2 [Compound 181]	7	16	–	–
CCN(N=C(C)c1ccccc1NS(=O)(=O)C(F)(F)F)c1ccc(Cl)cc1 [Compound 182]	5	29	–	–
CC(=O)N(N=C(C)c1cc(Cl)ccc1NS(=O)(=O)C(F)(F)F)c1ccccc1 [Compound 183]	–	–	2	22
CC(=Nn1c(=O)oc2ccccc21)c1cc(Cl)ccc1NS(=O)(=O)C(F)(F)F [Compound 184, N-[4-Chloro-2-(1-(2(3H)-oxo-benzoxazol-3-yl)imino)ethylphenyl]-trifluoromethanesulfonamide]	–	–	2	12
CC(=Nn1cccn1)c1cc(Cl)ccc1NS(=O)(=O)C(F)(F)F [Compound 185]	2	11	–	–
CC(=Nn1cnc2ccccc2c1=O)c1cc(Cl)ccc1NS(=O)(=O)C(F)(F)F [Compound 186, N-[4-Chloro-2-(1-{4(3)-oxo-quinazolin-3-yl}imino)ethylphenyl]-trifluoromethanesulfonamide]	–	–	2	12
C/C(=N\N1C(=O)NC(C)(C)C1=O)c1cc(Cl)ccc1NS(=O)(=O)C(F)(F)F [Compound 187]	5	19	–	–
CC(=Nn1cnc2ccccc21)c1cc(Cl)ccc1NS(=O)(=O)C(F)(F)F [Compound 188]	2	7	–	–
CC(=Nn1cc2ccccc2n1)c1cc(Cl)ccc1NS(=O)(=O)C(F)(F)F [Compound 189]	0	2	–	–
CC(=NN(C)c1ncccn1)c1cc(Cl)ccc1NS(=O)(=O)C(F)(F)F [Compound 190]	–	–	2	15
CC(=NN1CCN(C)CC1)c1cc(Cl)ccc1NS(=O)(=O)C(F)(F)F [Compound 191]	2	48	–	–
CC(=Nn1c(C)n[nH]c1=O)c1cc(Cl)ccc1NS(=O)(=O)C(F)(F)F [Compound 192]	3	5	–	–
CC(=Nn1ncc2ccccc21)c1cc(Cl)ccc1NS(=O)(=O)C(F)(F)F [Compound 193]	2	9	–	–
